# Assay results taken from US11474105B2, “Methods and compositions for SIRT1 expression as a marker for endometriosis and subfertility” (The University of North Carolina at Chapel Hill, priority 2016, dated 2022).
# System: BCL6 positive individuals
# Assay: IVF ovum transfer or frozen embryo transfer after pretreatment
# Format: in vivo
# Conditions: pretreatment for two months prior to transfer, compared to no treatment, p<0.0001
# Method: In vitro fertilized (IVF) ovum transfer or frozen embryo transfer was carried out in BCL6 positive individuals. There were three treatment groups: no treatment prior to transfer, laparoscopy with treatment of endometriosis prior to transfer and GnRH agonist suppression (Lupron) pretreatment for two months prior to transfer.
compound,measurement,value
"CCNC(=O)[C@@H]1CCCN1C(=O)[C@H](CCCNC(=N)N)NC(=O)[C@H](CC(C)C)NC(=O)[C@@H](CC(C)C)NC(=O)[C@H](Cc1ccc(O)cc1)NC(=O)[C@H](CO)NC(=O)[C@H](Cc1c[nH]c2ccccc12)NC(=O)[C@H](Cc1c[nH]cn1)NC(=O)[C@@H]1CCC(=O)N1 [Lupron, leuprolide acetate]",time to pregnancy,significantly better
same,transplantation rate,significantly better
